Laboratory results as given in ChEMBL document CHEMBL3885881, “DrugMatrix”.

Species: Rattus norvegicus
Assay: DrugMatrix - Regimen: Daily Repeat
Assay type: toxicity, organism-based, Sprague-Dawley
Set-up: regimen Daily Repeat, gender Male, age 6-8 weeks
Details: in vivo, po, route oral GAVAGE, vehicle 60 % PEG400; for URIC ACID / ALANINE AMINOTRANSFERASE / ALBUMIN / ALKALINE PHOSPHATASE / ASPARTATE AMINOTRANSFERASE / BLOOD UREA NITROGEN / CARBON DIOXIDE / CHLORIDE / CHOLESTEROL / CREATINE PHOSPHOKINASE / CREATININE / GLUCOSE / LACTATE DEHYDROGENASE / LIPASE / PHOSPHORUS / POTASSIUM / SODIUM / TOTAL BILIRUBIN / TOTAL PROTEIN: tissue Plasma; for ABSOLUTE BASOPHIL / ABSOLUTE EOSINOPHIL / ABSOLUTE LYMPHOCYTE / ABSOLUTE MONOCYTE / ABSOLUTE SEGMENTED NEUTROPHIL / BASOPHIL / EOSINOPHIL / ERYTHROCYTE COUNT / HEMATOCRIT / HEMOGLOBIN / LEUKOCYTE COUNT / LYMPHOCYTE / MEAN CORPUSCULAR HEMOGLOBIN / MEAN CORPUSCULAR HEMOGLOBIN CONCENTRATION / MEAN CORPUSCULAR VOLUME / MONOCYTE / NEUTROPHIL / NUCLEATED RED BLOOD CELLS / PLATELET COUNT: tissue Blood
[1] = 0.001 mg/kg, 120 h, dose level Low, time 5 day
[2] = 0.1 mg/kg, 72 h, dose level High, time 3 day
[3] = 0.1 mg/kg, 120 h, dose level High, time 5 day

N[C@@H](Cc1cc(I)c(Oc2ccc(O)c(I)c2)c(I)c1)C(=O)O [LIOTHYRONINE]
URIC ACID (0.001 mg/kg, 72 h, dose level Low, time 3 day): 1.37 mg/dL
ABSOLUTE BASOPHIL [1]: 0 CELLS/uL
ABSOLUTE EOSINOPHIL [1]: 0 CELLS/uL
ABSOLUTE LYMPHOCYTE [1]: 5590 CELLS/uL
ABSOLUTE MONOCYTE [1]: 0 CELLS/uL
ABSOLUTE SEGMENTED NEUTROPHIL [1]: 543.33 CELLS/uL
BASOPHIL [1]: 0%
EOSINOPHIL [1]: 0%
ERYTHROCYTE COUNT [1]: 5.59 x10E6/uL
HEMATOCRIT [1]: 33.3%
HEMOGLOBIN [1]: 12.43 G/DL
LEUKOCYTE COUNT [1]: 6.13 x10E3/uL
LYMPHOCYTE [1]: 91%
MEAN CORPUSCULAR HEMOGLOBIN [1]: 22.27 pg
MEAN CORPUSCULAR HEMOGLOBIN CONCENTRATION [1]: 37.37 G/DL
MEAN CORPUSCULAR VOLUME [1]: 59.57 fL
MONOCYTE [1]: 0%
NEUTROPHIL [1]: 9%
NUCLEATED RED BLOOD CELLS [1]: 0.67 /100WBC
PLATELET COUNT [1]: 972.33 x10E3/uL
ALANINE AMINOTRANSFERASE [1]: 52.67 u/L
ALBUMIN [1]: 4.57 G/DL
ALKALINE PHOSPHATASE [1]: 421 u/L
ASPARTATE AMINOTRANSFERASE [1]: 80.33 u/L
BLOOD UREA NITROGEN [1]: 15.33 mg/dL
CARBON DIOXIDE [1]: 31 mmol/L
CHLORIDE [1]: 100.33 MEQ/L
CHOLESTEROL [1]: 86 mg/dL
CREATINE PHOSPHOKINASE [1]: 257.67 u/L
CREATININE [1]: 0.19 mg/dL
GLUCOSE [1]: 174.33 mg/dL
LACTATE DEHYDROGENASE [1]: 98.33 u/L
LIPASE [1]: 8.33 u/L
PHOSPHORUS [1]: 12.67 mg/dL
POTASSIUM [1]: 6.56 MEQ/L
SODIUM [1]: 144.9 MEQ/L
TOTAL BILIRUBIN [1]: 0.1 mg/dL
URIC ACID [1]: 2.23 mg/dL
ABSOLUTE BASOPHIL [2]: 0 CELLS/uL
ABSOLUTE EOSINOPHIL [2]: 0 CELLS/uL
ABSOLUTE LYMPHOCYTE [2]: 13461.67 CELLS/uL
ABSOLUTE MONOCYTE [2]: 261.67 CELLS/uL
ABSOLUTE SEGMENTED NEUTROPHIL [2]: 1443.33 CELLS/uL
BASOPHIL [2]: 0%
EOSINOPHIL [2]: 0%
ERYTHROCYTE COUNT [2]: 6.02 x10E6/uL
HEMATOCRIT [2]: 37%
HEMOGLOBIN [2]: 14.37 G/DL
LEUKOCYTE COUNT [2]: 15.17 x10E3/uL
LYMPHOCYTE [2]: 89.33%
MEAN CORPUSCULAR HEMOGLOBIN [2]: 23.9 pg
MEAN CORPUSCULAR HEMOGLOBIN CONCENTRATION [2]: 38.8 G/DL
MEAN CORPUSCULAR VOLUME [2]: 61.5 fL
MONOCYTE [2]: 1.67%
NEUTROPHIL [2]: 9%
NUCLEATED RED BLOOD CELLS [2]: 0 /100WBC
PLATELET COUNT [2]: 889 x10E3/uL
ALANINE AMINOTRANSFERASE [2]: 70.67 u/L
ALBUMIN [2]: 4.1 G/DL
ALKALINE PHOSPHATASE [2]: 525 u/L
ASPARTATE AMINOTRANSFERASE [2]: 112 u/L
BLOOD UREA NITROGEN [2]: 14.67 mg/dL
CARBON DIOXIDE [2]: 26.67 mmol/L
CHLORIDE [2]: 104 MEQ/L
CHOLESTEROL [2]: 88 mg/dL
CREATINE PHOSPHOKINASE [2]: 402.67 u/L
CREATININE [2]: 0.19 mg/dL
GLUCOSE [2]: 148.67 mg/dL
LACTATE DEHYDROGENASE [2]: 156.67 u/L
LIPASE [2]: 14 u/L
PHOSPHORUS [2]: 15.67 mg/dL
POTASSIUM [2]: 7.38 MEQ/L
SODIUM [2]: 147 MEQ/L
TOTAL BILIRUBIN [2]: 0.13 mg/dL
TOTAL PROTEIN [2]: 5.67 G/DL
URIC ACID [2]: 2.47 mg/dL
ABSOLUTE BASOPHIL [3]: 0 CELLS/uL
ABSOLUTE EOSINOPHIL [3]: 0 CELLS/uL
ABSOLUTE LYMPHOCYTE [3]: 3351.33 CELLS/uL
ABSOLUTE MONOCYTE [3]: 14.67 CELLS/uL
ABSOLUTE SEGMENTED NEUTROPHIL [3]: 800.67 CELLS/uL
BASOPHIL [3]: 0%
EOSINOPHIL [3]: 0%
ERYTHROCYTE COUNT [3]: 5.59 x10E6/uL
HEMATOCRIT [3]: 34.2%
HEMOGLOBIN [3]: 12.77 G/DL
LEUKOCYTE COUNT [3]: 4.17 x10E3/uL
LYMPHOCYTE [3]: 80.33%
MEAN CORPUSCULAR HEMOGLOBIN [3]: 22.83 pg
MEAN CORPUSCULAR HEMOGLOBIN CONCENTRATION [3]: 37.33 G/DL
MEAN CORPUSCULAR VOLUME [3]: 61.17 fL
MONOCYTE [3]: 0.33%
NEUTROPHIL [3]: 19.33%
NUCLEATED RED BLOOD CELLS [3]: 0.33 /100WBC
PLATELET COUNT [3]: 792.67 x10E3/uL
ALANINE AMINOTRANSFERASE [3]: 69.67 u/L
ALBUMIN [3]: 4.13 G/DL
ALKALINE PHOSPHATASE [3]: 576 u/L
ASPARTATE AMINOTRANSFERASE [3]: 110 u/L
BLOOD UREA NITROGEN [3]: 12.67 mg/dL
CARBON DIOXIDE [3]: 32.67 mmol/L
CHLORIDE [3]: 103.33 MEQ/L
CHOLESTEROL [3]: 94.67 mg/dL
CREATINE PHOSPHOKINASE [3]: 218 u/L
CREATININE [3]: 0.12 mg/dL
GLUCOSE [3]: 132.67 mg/dL
LACTATE DEHYDROGENASE [3]: 105.33 u/L
LIPASE [3]: 12.33 u/L
PHOSPHORUS [3]: 13.73 mg/dL
POTASSIUM [3]: 7.47 MEQ/L
SODIUM [3]: 149.43 MEQ/L
TOTAL BILIRUBIN [3]: 0.13 mg/dL
TOTAL PROTEIN [3]: 5.8 G/DL
URIC ACID [3]: 2.43 mg/dL
